Entries after “also recorded” stand apart in the source; their conditions may differ.
Experiments:
Assay type in all cases: cell-based, human
iPSC-RPE [1] = assay: Trans-epithelial electrical resistance (TER), tight junction integrity; conditions: fully mature iPSC-RPE; for TER resistance: minimum threshold 400 Ωcm^2, DMSO around 1100
Description: (§1) Different techniques were used to study RPE morphologic features.
At this point the trans-epithelial electrical resistance (TER) was assayed to confirm the quality of differentiation and examine the effect of drugs on tight junction integrity. The minimum threshold of 400 Ωcm^2 for epithelial resistance per unit area is used to determine good batches of differentiation.
Trans-epithelial electrical resistance (TER) is a measure of the tightness of the monolayer. The tighter the monolayer, the healthier are the cells in the monolayer. A cutoff of 400 ohm*cm^2 was used to exclude cells with low TER. […] The range specifies 90% of the data.

iPSC-RPE [2] = assay: Shape metrics (cell area) of drug-treated fully mature iPSC-RPE on transwells; conditions: treated from D21 until fully mature; for iPSC-RPE area: transwells; for iPSC-RPE cell size compared with human RPE populations: reference P1 macular, P3 peripheral
Description: Segmentation Using Convolutional Network: A Convolutional Neural Network (CNN) algorithm was used to recognize RPE cell borders from images of samples labeled by immunofluorescence. The algorithm generates a binary mask of segmented RPE borders; and this output was manually corrected to provide the “right answer” on which the algorithm would learn. Once trained, the CNN algorithm was fed with images of fluorescently labeled RPE cells and the binary mask images that were generated become the input for the REShAPE software for cell shape analysis (FIG. 3).
Morphometric Analysis Using REShAPE: The binary segmentation produced by the CNN algorithm was transferred to REShAPE for cell shape analysis. REShAPE (Retinal Epithelium Shape and Pigment Evaluator) is a Fiji plugin for image analysis. For every cell in a field of view that has been successfully segmented, REShAPE provide quantification of more than 25 different shape metrics. The raw data was stored in a spreadsheet to allow for statistical analysis. In addition, the software created images of segmented cells for every metric analyzed, where every cell is color-coded according to the raw values (FIG. 4). The color-coded images display the location of the cells analyzed. The shape metrics were analyzed with the software to give measurements of cell dimensions, such as area and perimeter, measurements of elongation, such as length of major and minor axis, and measurements of cell regularity, such as hexagonality score and number of neighbors. The analysis was performed in pixel units or μm, as far as the pixel to μm conversion is provided. The analysis of data and the graphs have been done using R software (“R Core Team (2018). R: A language and environment for statistical computing. R Foundation for Statistical Computing, Vienna, Austria. URL https://www.R-project.org/”). The R packages “plyr” and “ggplot2” have been use for data handling and plotting respectively (Wickham, 2009, 2011). The Dunnett's test, a method for post hoc pairwise multiple comparisons, was used to compute statistical analysis by comparing several treatment groups to control groups. A 95% family-wise confidence level has been used. […] Shapiro-Wilk's test and one-way ANOVA were carried out using the R package “dplyr” (Wickham et al., dplyr: A Grammar of Data Manipulation. Retrieved from https://cran.r-project.org/package=dplyr, 2019), while Q-Q plots were drawn using the R package “ggpubr” (Kassambara, ggpubr: “ggplot2” Based Publication Ready Plots. Retrieved from cran.r-project.org/package=ggpubr, 2020). […]
Subsequently, shape metrics were analyzed to confirm the effect of the drugs on cell areas. […]

iPSC-RPE [3] = assay: Testing different concentrations of AGN 193109 and endo-IWR-1 to reproduce macular (P1), central (P2) and peripheral (P3) cells
Description: FIG. 13. Testing different concentrations of AGN 193109 and endo-IWR-1 to reproduce macular (P1), central (P2) and peripheral (P3) cells. A range of concentrations of AGN 193109 and endo-IWR-1 were tested that could be used to reproduce macular, central and peripheral RPE populations (labeled P1, P2 and P3, respectively). Population 1 (P1, macular cells) can be reproduced with […] of AGN 193109. Population 3 (P3, peripheral) can be reproduced with 1 mM-4 mM of endo-IWR-1. A gradient of AGN 193109 and endo-IWR-1 could be used to replicate human RPE population 2 (P2, central)—central RPE cells. In one example, this can be reproduced with 25 nM-50 nM of AGN 193109 and 0.1 mM-0.5 mM of endo-IWR-1. Boxplots relative to DMSO, P1, P2 and P3 are plotted on the left side of the graph as a reference for cell size comparison. Five concentrations were tested for AGN 193109 and endo-IWR-1.

iPSC-RPE [4] = assay: Scanning electron microscopy of apical processes; conditions: SEM; for apical processes average transversal length / apical processes average transversal width: transversal section; for type of apical processes: DMSO control shows both petal and finger-like
Description: FIG. 11. Defining petal (undulated) and finger-like apical processes. The transversal section of apical processes was measured to precisely define their shape. Petal-like apical processes, obtained by treating RPE cells with AGN 193109, have an average transversal length of 1.68 μm (length min 0.5, max 4 μm) and width of 0.20 μm (width min 0.1, max 1 μm). The petal-like apical processes are also wavy along their length. The width of the undulation ranges from 0.2 to 2 μm. Finger-like apical processes, obtained by treating RPE cells with endo-IWR-1, are cylindrical and have the same average transversal length and width of 0.23 μm (min 0.1, max 1 microns). An example of how measurements of the apical processes was done is shown for each type of apical processed.
as §1
Finally, transmission electron microscopy (TEM) was used to detect fine morphological alterations, whereas scanning electron microscopy (SEM) was essential to study modifications in apical processes structures. […] In DMSO-treated iPSC-RPE we found both types of apical processes, petal and finger-like.

Compound	effect on epithelial barrier / tight junction integrity (iPSC-RPE [1])	TER resistance (iPSC-RPE [1])	iPSC-RPE area (iPSC-RPE [2]) [μm^2]	iPSC-RPE cell size compared with human RPE populations (iPSC-RPE [2])	concentration that reproduces population 2 (P2, central) (iPSC-RPE [3]; AGN 193109 combined with endo-IWR-1) [nM]	concentration used to reproduce P1 (macular) (iPSC-RPE [3]; Table 6) [µM]	apical processes average transversal length (iPSC-RPE [4]) [μm]	apical processes average transversal width (iPSC-RPE [4]) [μm]	type of apical processes (iPSC-RPE [4])	concentration used to reproduce P3 (peripheral) (iPSC-RPE [3]; Table 6) [µM]	concentration used to reproduce P2 (central) (iPSC-RPE [3]; Table 6, ENDO-1-IWR combined with AGN 193109) [µM]	type of apical processes (iPSC-RPE [4]; listed as Endo-IWR-1)
Cc1ccc(C2=CCC(C)(C)c3ccc(C#Cc4ccc(C(=O)O)cc4)cc32)cc1 [AGN 193109, 4-[2-[5,6-Dihydro-5,5-dimethyl-8-(4-methylphenyl)-2-naphthalenyl]ethynyl]-benzoic acid]	maintained tight junction integrity	~1600 Ωcm^2	161.8±149.7	comparable to the dimension of macular RPE population (P1); also recorded: shifts iPSC-RPE cell sizes toward macular RPE population (P1); also recorded: able to reproduce the cellular size of macular population (P1) and peripheral population (P3) respectively	25 to 50	0.1 to 0.2	1.68	0.20	enriched RPE cells with petal-like apical processes (with undulation); also recorded: enrich RPE cells with petal-like and finger-like apical processes, respectively			
O=C(Nc1cccc2cccnc12)c1ccc(N2C(=O)C3C4C=CC(C4)C3C2=O)cc1 (stereo not drawn) [ENDO-1-IWR, 4-(1,3,3a,4,7,7a-Hexahydro-1,3-dioxo-4,7-methano-2H-isoindol-2-yl)-N-8-quinolinyl-Benzamide]	maintained tight junction integrity	~1200 Ωcm^2	251.8±218.4	comparable to cells of peripheral RPE population P3; also recorded: increases cell sizes up to the dimensions of the peripheral RPE population P3; also recorded: able to reproduce the cellular size of macular population (P1) and peripheral population (P3) respectively; also recorded: increases RPE cell size to match human peripheral RPE population P3			0.23	0.23	enriched uniquely by finger-like apical processes; also recorded: enrich RPE cells with petal-like and finger-like apical processes, respectively; also recorded: enriches these cells with finger-like apical processes	1 to 4	0.1 to 0.2	enriched cells with finger-like apical processes

From patent US20240261474A1, “BIODEGRADABLE TISSUE SCAFFOLD WITH SECONDARY MATRIX TO HOST WEAKLY ADHERENT CELLS” (THE U.S.A., as represented by the Secretary, Department of …, priority 2021, published 2024)
